Laboratory results taken from paper PMC12156033, “N-Alkylamino Stilbene Compounds as Amyloid β Inhibitors for Alzheimer’s Disease Research” (Molecules, 2025).
Entries after “also recorded” stand apart in the source; their conditions may differ.

Experiments:
[1] = Alamar blue cytotoxicity assay; assay type: cell-based, mouse; settings: mouse, Neuro2A (N2A) neuroblastoma cells, highest tested concentration (20 μM), 40 h, normalized to DMSO-only control, read-out: cell viability
Description: (§1) Mouse neuroblastoma Neuro2A (N2A) cell lines were purchased from the American Type Culture Collection (ATCC), Manassas, VA, USA. Cells were grown in DMEM/10% FBS, which is the regular growth media for N2A cells, in a humidified atmosphere with 5% CO2 at 37 °C. N2A cells were seeded in a clear 96-well plate (2.5 × 10^4/well) with DMEM/10% FBS. The media was changed to DMEM/N-2 media 24 h later. After 1 h, the treatment reagents were added. Owing to the poor solubility of compounds in the media, the final amount of DMSO used was 1% (v/v). After an additional incubation of 40 h, Alamar Blue solution was added to each well, and the cells were incubated for 90 min at 37 °C. Fluorescence intensity was measured at 590 nm (excitation wavelength = 560 nm).
(§2) The Alamar Blue assay was carried out as described, with the following treatment reagents: 20 μM compounds, 10 μM compounds, 5 μM compounds, and 2 μM compounds.

[2] = Fluorescence spectra of the compounds alone in PBS; assay type: physicochemical; settings: excitation 380 nm; compound 5.0 µM in PBS
Description: (§3) All fluorescence measurements were performed using a SpectraMax M2e plate reader (Molecular Devices, San Jose, CA, USA). The fluorescence spectra of the compounds’ solution (100 μL PBS, 5.0 µM) were recorded with excitation at 380 nm and an emission wavelength from 400 to 680 nm. To PBS solutions (100 μL) of the compounds (5.0 µM), various Aβ42 species were added, with final concentrations of 5.0 µM and 25.0 µM, and their fluorescence spectra (λmax of emission) were determined as described above.

[3] = biological target: T1, soluble Aβ42 aggregates (sAβ) (Homo sapiens, UniProt P05067); assay: Fluorescence spectra of compounds with soluble Aβ42 aggregates; assay type: binding; settings: excitation 380 nm; compound 5.0 µM in PBS with soluble Aβ aggregates
T1 construct: commercial Aβ42 peptide (AnaSpec or GL Biochem); purchased AnaSpec or GL Biochem
T1 sequence (P05067 672-713 limits assumed): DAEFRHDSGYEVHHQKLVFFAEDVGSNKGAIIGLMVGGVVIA
Description: as §3
(§4) Aβ42 powder was prepared by dissolving commercial Aβ42 peptide (AnaSpec or GL Biochem) in ammonium hydroxide solution (1%, v/v). The solution was then aliquoted out and lyophilized overnight. The resulting aliquoted powder was stored at −80 °C. Aβ42 monomers were generated by dissolving Aβ42 powder in 1,1,1,3,3,3-hexafluoro-2-propanol (HFIP, 1 mM) and incubating for 1 h at room temperature. The solution was then evaporated overnight and dried by vacuum centrifuge to result in monomeric films. Aβ42 fibrils were generated by dissolving the monomeric Aβ42 films in DMSO, diluting into the appropriate buffer, and incubating for 24 h at 37 °C with continuous agitation (final DMSO concentration was <2%). For the preparation of Aβ42 oligomers, the peptides were suspended in PBS buffer and incubated overnight at 4 °C.

[4] = Log D measurement octanol/PBS; assay type: physicochemical; settings: octanol / PBS pH 7.4, 10 μM, triplicate, ± SD
Description: The determination of log D values for N-alkylamino multifunctional compounds was performed using a slightly modified reported procedure. The compounds (final concentration 10 μM) were added to the premix suspension containing 0.5 mL octanol and 0.5 mL octanol-saturated PBS buffer (pH = 7.4). The resulting mixture was stirred vigorously for 5 min and centrifuged at 2000 rpm for 5 min. The octanol layer was separated from the PBS layer, and the fluorescence spectrum was recorded. The remaining 0.5 mL PBS layer was partitioned with 0.5 mL PBS-saturated octanol, and the octanol layer was separated after 5 min of vigorous shaking and centrifuging. The fluorescence spectrum of the octanol layer was recorded. The log D value was calculated based on the fluorescence intensity ratio for the two octanol layers. Each experiment was completed in triplicate, and the error represents the standard deviation for the average log D values.

[5] = biological target: T2, amyloid plaques in 5xFAD mice brain sections (Homo sapiens, UniProt P05067); assay: Histological staining of 5xFAD mice brain sections, colocalization with HJ3.4 antibody; assay type: binding, mouse; settings: 11-month-old 5xFAD mice brain sections, compound 25 μM, HJ3.4 1 μg/mL
T2 construct: the amyloid beta (Aβ) peptide that makes up amyloid plaques; tissue Jackson Laboratories; host or cells: brain sections from 11-month-old 5xFAD transgenic mice (Tg6799 line)
T2 sequence (P05067 672-713 limits assumed): as above
Description: To further investigate the affinity of the developed compounds toward various Aβ aggregates in situ, the intrinsic fluorescence properties of the compounds were employed for their ability to stain insoluble amyloid plaques. For these studies, brain sections from 11-month-old 5xFAD transgenic mice, which rapidly develop severe amyloid pathology, were co-stained with stilbenes and HJ3.4 antibody. HJ3.4 is an anti-amyloid antibody that binds to the N-terminal region of the Aβ peptide, thereby targeting both soluble and insoluble amyloid species. To evaluate the Aβ binding specificity of the compounds in vitro, brain sections from 11-month-old 5xFAD mice were washed with PBS (3 × 5 min) and blocked with bovine serum albumin (2% w/v BSA in PBS, pH 7.4, 10 min). Then, the sections were incubated with 25 μM of multifunctional compounds and sequentially stained with HJ3.4 antibody (Professor David Holtzman, 1 μg/mL) for 30 min. The brain sections were treated with 2% w/v BSA-PBS again for 4 min to remove any compounds or antibodies that were non-specifically binding to the tissue. Finally, the sections were washed with PBS (3 × 2 min) and DI water (2 min) and mounted with non-fluorescent mounting media (Vectashield). Colocalization analysis and determination of Pearson’s correlation coefficient were performed with the imaging software Fiji (ImageJ 1.52p). Mouse brains were harvested in compliance with the Institutional Animal Care and Use Committee of the University of Illinois at Urbana-Champaign (IACUC protocol #22094).

[6] = biological target: T3, Aβ42 fibrils (Homo sapiens, UniProt P05067); assay: Fluorescence spectra of compounds with Aβ42 fibrils; assay type: binding; settings: excitation 380 nm; compound 5.0 µM in PBS with Aβ fibrils
T3 construct: commercial Aβ42 peptide (AnaSpec or GL Biochem); purchased AnaSpec or GL Biochem
T3 sequence (P05067 672-713 limits assumed): as above
Description: as §3, §4

[7] = biological target: T4, Aβ aggregates (sAβ and Aβ fibrils) (Homo sapiens, UniProt P05067); assay: Fluorescence turn-on assay with Aβ aggregates; assay type: binding; settings: compound 5 μM in PBS pH 7.4
T4 construct: commercial Aβ42 peptide (AnaSpec or GL Biochem); purchased AnaSpec or GL Biochem
T4 sequence (P05067 672-713 limits assumed): as above
Description: A fluorescence turn-on assay was performed to interrogate the effect of structural differences on the fluorescence enhancement with Aβ aggregates. […] Increases in fluorescence intensity with different aggregates would be ideal for tools used in amyloid-based assays. […] Without the ortho-methoxy group on the EAG, there is greater fluorescence enhancement for Aβ fibrils over sAβ for L3 and L4. […] The larger fluorescence enhancement observed for L6 than L5 indicates the dimethylamine EDG/methoxy EAG pair has a greater TICT. The piperidine-EDG-containing L7 has only slightly higher turn-on with sAβ, which may be attributed to the ortho-methoxy group on the EAG. […] In this case, it appears that the methoxy on the EAG diminishes the overall fluorescence of the compound since L8 has greater baseline fluorescence and turn-on than L7. This is also the case for the morpholine-EDG-containing L9 and L10. The lack of a methoxy group on the L10 EAG, in conjunction with the oxygen heteroatom from the morpholine EDG, electronically favors turn-on with Aβ fibrils to a slight extent. […] Changing the EDG to a methyl piperazine, L11, increases baseline fluorescence and turn-on compared to L9. […] L11 and L12, both containing an N-methyl piperazine EDG, show similar turn-on with sAβ and fibrils, and the o-methoxy EAG of L11 increases overall baseline fluorescence compared to L12. […] The spectra for the remaining compounds can be found in the Supplementary Information (Figure S1). None of the three compounds with the highest fluorescence contained an o-methoxy group on the EAG.
as §3, with “above. […]” for “above.”

[8] = biological target: T5, Aβ40 peptide (Homo sapiens, UniProt P05067); assay: Aβ40 aggregation inhibition assay monitored by ThT fluorescence; assay type: biochemical; settings: 25 μM Aβ40, 5 μM ThT, 5 μM compound, 37 °C, 48 h
T5 construct: a peptide solution of 25 μM Aβ40 monomers (AnaSpec, Fremont, CA, USA) was prepared; purchased AnaSpec
T5 sequence (P05067 672-711 limits assumed): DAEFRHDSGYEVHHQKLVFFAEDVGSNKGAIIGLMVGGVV
Description: To investigate the effect of these compounds on amyloid aggregation, inhibition of aggregation assays were performed using the Aβ40 peptide. Aβ40 has been implicated in inducing oxidative stress and is physiologically the most common isoform of the amyloid peptide and is therefore a widely used isoform in amyloid assays. Aβ40 is also known to have slower aggregation kinetics than Aβ42, which is helpful for studying the inhibition of the early aggregation pathway. […] Thus, a lower RFU can be interpreted as inhibiting the fibrillization of amyloids. The rest of the compounds show appreciable inhibition of Aβ aggregation as found in the Supplementary Materials (Figure S2), except for L9, which contains the morpholine EDG and a methoxy group on the EAG (Figure 3). The addition of the more polar oxygen heteroatom may instead favor hydrogen bonding interactions within the aqueous media, thereby solvating the compound and reducing early interactions with soluble aggregates. Lastly, although L2 and L3 show similar amyloid inhibition, the L3 compound lacking the o-methoxy group begins inhibition at an earlier time. […] This procedure was established in a previous publication.

[9] = system: Cu-Aβ42 cytotoxicity on N2a cells; assay: N2a cell rescue from Cu-induced Aβ42 cytotoxicity (Alamar blue); assay type: cell-based, mouse; settings: [Aβ42] = [CuCl2] = 20 μM, compound 5 μM
Description: as §1
The Alamar Blue assay was carried out as described, with the following treatment reagents: 20 μM Aβ42 species, 5 μM compounds, and 20 μM CuCl2.

[10] = system: N2a cells; assay: Alamar blue cytotoxicity assay; assay type: cell-based, mouse; settings: among the cyclic amine EDG derivatives
Description: as §1, §2

[11] = biological target: soluble Aβ42 (Homo sapiens, UniProt P05067); assay: ThT control fluorescence turn-on assay with soluble Aβ42; assay type: binding; settings: [Aβ42] = 5 μM, em 485 nm, ex 435 nm
Sequence of soluble Aβ42 (P05067 672-713 limits assumed): as the sequence (P05067 672-713 limits assumed) above
Description: Aβ42 and Aβ42 fibrils was used to control for soluble vs. insoluble amyloid.
text to prepare soluble and fibrillar Aβ42, the UV-vis absorbance was measured for the soluble
Aβ42 used in the control. In a cuvette, 100 μL o f [ A β42] = 20 μM. […]

Compound λem (λmax of emission) [2] [nm]	Compound+sAβ λem (λmax of emission) [3] [nm]	logD [4]	Pearson's coefficient (R) of colocalization with AF594-HJ3.4 [5]	Compound+Fibrils λem (λmax of emission) [6] [nm]	inhibition of Aβ40 aggregation (ThT RFU) [8]	fluorescence turn-on [11]	Structure (SMILES)	viability at 40 h, 20 µM [1] [%]	fluorescence enhancement / turn-on with Aβ aggregates [7]	effect on Cu-stabilized Aβ42 / Aβ42-induced toxicity [9]	cell viability (ranking in words) [10]
460	430	1.29 ± 0.01	0.68	430	best inhibition	–	CN1CCN(C)CCN(Cc2cc(/C=C/c3ccc(N4CCCCC4)cc3)ccc2O)CC1 [Compound L8, (E)-2-((4,7-dimethyl-1,4,7-triazonan-1-yl)methyl)-4-(4-(piperidin-1-yl)styryl)phenol]	–	highest fluorescence turn-on; also recorded: greatest overall fluorescence enhancements	toxicity was exacerbated	–
450	430	0.81 ± 0.01	0.65	435	–	–	CN1CCN(C)CCN(Cc2cc(/C=C/c3ccc(N4CCN(C)CC4)cc3)ccc2O)CC1 [Compound L12, (E)-2-((4,7-dimethyl-1,4,7-triazonan-1-yl)methyl)-4-(4-(4-methylpiperazin-1-yl)styryl)phenol]	–	–	rescue cells from Cu-Aβ42 cytotoxicity	best cell viability

More lines, now with the values behind:

Structure (SMILES)	Compound λem (λmax of emission) [2] [nm]	Compound+sAβ λem (λmax of emission) [3] [nm]	logD [4]	Pearson's coefficient (R) of colocalization with AF594-HJ3.4 [5]	Compound+Fibrils λem (λmax of emission) [6] [nm]	inhibition of Aβ40 aggregation (ThT RFU) [8]	fluorescence turn-on [11]	viability at 40 h, 20 µM [1] [%]	fluorescence enhancement / turn-on with Aβ aggregates [7]	effect on Cu-stabilized Aβ42 / Aβ42-induced toxicity [9]	cell viability (ranking in words) [10]
CNc1ccc(/C=C/c2cc(CN3CCN(C)CCN(C)CC3)c(O)c(OC)c2)cc1 [Compound L2, (E)-2-((4,7-dimethyl-1,4,7-triazonan-1-yl)methyl)-6-methoxy-4-(4-(methylamino)styryl)phenol]	460	440	1.48 ± 0.02	0.54	440	–	–	88	–	–	–
COc1cc(/C=C/c2ccc(N3CCOCC3)cc2)cc(CN2CCN(C)CCN(C)CC2)c1O [Compound L9, (E)-2-((4,7-dimethyl-1,4,7-triazonan-1-yl)methyl)-6-methoxy-4-(4-morpholinostyryl)phenol]	455	455	0.93 ± 0.02	0.71	450	least inhibition	–	–	–	inhibit both Cu-stabilized Aβ42- and Aβ42-induced toxicity; also recorded: rescue cells from Cu-Aβ42 cytotoxicity	best cell viability
Cc1ccc2c(c1)sc(-c1ccc(N(C)C)cc1)[n+]2C [ThT, Thioflavin T]	–	–	–	–	–	–	negligible turn-on	–	–	–	–
